Measurements from PubChem BioAssay (NCI).
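Method: 48-hour compound exposure of cells in 96-well plates, five concentrations, linear interpolation of endpoints. The concentration for full growth arrest is given as TGI.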

Experiments:
Test in all cases: inhibition of tumour cell growth, NCI panel, 48 h
786-0 renal = tested on: 786-0 renal
NCI-H522 lung = tested on: NCI-H522 lung
SF-268 CNS = tested on: SF-268 CNS
SF-295 CNS = tested on: SF-295 CNS
SK-MEL-2 melanoma = tested on: SK-MEL-2 melanoma
SK-MEL-5 melanoma = tested on: SK-MEL-5 melanoma
SNB-75 CNS = tested on: SNB-75 CNS
SR leukemia = tested on: SR leukemia
UACC-62 melanoma = tested on: UACC-62 melanoma
MDA-MB-435 = tested on: MDA-MB-435
MCF7 breast = tested on: MCF7 breast

Structure (SMILES)	TGI (786-0 renal) [µM]	TGI (NCI-H522 lung) [µM]	TGI (SF-268 CNS) [µM]	TGI (SF-295 CNS) [µM]	TGI (SK-MEL-2 melanoma) [µM]	TGI (SK-MEL-5 melanoma) [µM]	TGI (SNB-75 CNS) [µM]	TGI (SR leukemia) [µM]	TGI (UACC-62 melanoma) [µM]	TGI (MDA-MB-435) [µM]	TGI (MCF7 breast) [µM]
Nc1cc2c(C3OC(CO)C(O)C3O)[nH]nc2c(=S)[nH]1 (stereo not drawn)	> 100	> 100	> 100	> 100	> 100	> 100	> 100	> 100	> 100	–	–
Cc1c(S(=O)(=O)/N=C(\NO)Nc2ccc(Cl)cc2)sc2ccc(Cl)cc12	32.3	22.7	35.6	41	34.4	27.4	41.9	–	29.8	33.7	–
CN(C)CCCCN1c2ccccc2Sc2ccc(N=[N+]=[N-])cc21	23.6	14.1	19.5	17.8	9.66	3.04	10	–	3.77	4.36	5.26
O=C(O)OC12CCCCCC1C(=O)C1CCCCC12 (stereo not drawn)	> 100	> 100	> 100	> 100	> 100	> 100	> 100	> 100	> 100	–	–
COc1ccc(Cc2c3cc(OC)c(OC)cc3cc[n+]2C)cc1	> 29.7	> 85.9	> 27.5	> 24.7	> 45.8	> 62.2	34.6	> 100	> 50	–	–
CSC(SC)=C1Sc2cccc(Cl)c2S1	> 100	63.8	> 100	> 100	48.8	> 100	> 100	–	> 100	–	–
O=C(c1ccccc1)N1N=C(C(F)(F)F)CC1(O)C(F)(F)F (stereo not drawn)	> 100	> 100	> 100	> 100	> 100	–	> 100	> 100	–	> 100	> 100
CC1CC(=O)C(CC(=O)O)[C@H]1C(C(=O)C(=O)Nc1cc(Cl)ccc1Cl)[N+](=O)[O-] (stereo partly drawn)	> 100	> 100	> 100	> 100	–	> 100	> 100	> 100	> 100	–	–
COC(=O)C#CC1(O)C=CC(=O)C=C1	1.82	0.552	3.18	> 41.8	7.64	–	18.1	15.2	2.64	1.28	–
CC12CCC(C(=Nc3ccc([N+](=O)[O-])cc3)C1=O)C2(C)C (stereo not drawn)	78.5	–	47.3	> 100	49.2	90.7	–	59.3	> 100	64.6	> 100
COC(=O)c1c(O)ccc2c1c1c(n2CCc2ccccc2)C(=O)c2ccccc2C1	37.9	–	41	–	40.5	43	54.1	> 100	37.2	67	42.5
CN(C)CCC(C#N)(c1ccccc1)c1ccccc1	> 100	> 100	> 100	> 100	> 100	51.1	> 100	–	> 100	> 100	> 100
